Assay results from the OPERA property sets (Mansouri et al. 2018).

Conditions: for log10 BCF / log10 biotransformation half-life (days): fish

C[C@@H]1O[C@@H](O[C@@H]2C=C3CC[C@@H]4[C@H](CC[C@]5(C)[C@@H](c6ccc(=O)oc6)CC[C@]45O)[C@@]3(C)CC2)[C@H](O)[C@H](O)[C@H]1O
melting point: 221 °C

O=C(O)c1cc2ccccc2[nH]1
melting point: 206 °C

Cc1ccc(C)c(C(C)c2ccccc2)c1 (stereo unspecified)
ready biodegradability: not readily biodegradable
log10 BCF: 2.86
log10 biotransformation half-life (days): 0.1

O=C(O)c1ccccc1Nc1cccc(C(F)(F)F)c1
melting point: 134 °C

C=Cc1ccc(C(C)C)cc1
boiling point: 204 °C
melting point: -44.7 °C

Cc1cc(=O)oc2cc(O)c(O)cc12
melting point: 275 °C

Cc1ccccc1-n1c(C)nc2ccccc2c1=O
melting point: 120 °C

C=C(Cl)CSC(=S)N(CC)CC
log10 vapour pressure (mmHg): -2.66

C[Se][Se]C
boiling point: 156 °C
log10 vapour pressure (mmHg): 0.455

C/C=C/C(=O)OCC
boiling point: 137 °C

O=C1CN=C(c2ccccc2)c2cc(Cl)ccc2N1CC1CC1
melting point: 146 °C

CCCCCC(C)O (stereo unspecified)
boiling point: 159 °C
log10 vapour pressure (mmHg): 0.0899

COP(=O)(OC)C(O)C(Cl)(Cl)Cl (stereo unspecified)
log10 Koc (L/kg): 1.9
log10 vapour pressure (mmHg): -5.11
melting point: 77 °C
ready biodegradability: not readily biodegradable

Cc1ccc(C)c(C)n1
boiling point: 172 °C

O=[N+]([O-])c1ccc2ccc3cccc4ccc1c2c34
melting point: 155 °C

CCCCC(CC)COC(=O)c1nc(Cl)c(Cl)c(N)c1Cl (stereo unspecified)
log10 biotransformation half-life (days): 0.45

Cc1c([N+](=O)[O-])cc(N)cc1[N+](=O)[O-]
melting point: 171 °C

O=C(O)C(F)(F)C(F)(F)C(=O)O
melting point: 119 °C

CC(=O)Oc1ccc(Br)cc1C(=O)O
melting point: 60 °C

CCC(C)(Cl)CC
boiling point: 116 °C

C[C@@H](N)C(=O)O
melting point: 292 °C

CCN(CC)C(=O)/C(Cl)=C(/C)OP(=O)(OC)OC
log10 vapour pressure (mmHg): -4.78
melting point: -45 °C

O=C1CCC(=O)N1Cl
boiling point: 216 °C
melting point: 150 °C

Cc1ccc(SSc2ccc(C)cc2)cc1
melting point: 47.5 °C

O=S(=O)(O)C(F)(F)C(F)(F)C(F)(F)C(F)(F)F
boiling point: 211 °C

c1ccc(Cc2nc3ccccc3[nH]2)cc1
melting point: 187 °C

CC=CCC
boiling point: 36.7 °C
melting point: -146 °C

O=[N+]([O-])c1ccc2c3c(cccc13)CC2
melting point: 100 °C

CCCCCCCCCCI
log10 vapour pressure (mmHg): -1.85
melting point: -16.3 °C

CCOC(=O)C(C)C(C)=O (stereo unspecified)
boiling point: 187 °C

Cc1c(F)c(F)c(C(=O)O)c(F)c1F
melting point: 174 °C

COC(=O)CCCCCCCCCCC(=O)OC
melting point: 31.9 °C

O=C1c2ccccc2C(=O)C1c1ccc(Cl)cc1
melting point: 146 °C

Ic1cn[nH]c1
melting point: 109 °C

Cc1ccc2cccc([N+](=O)[O-])c2n1
melting point: 140 °C

CC(=O)N(O)CCCCCNC(=O)CCC(=O)N(O)CCCCCNC(=O)CCC(=O)N(O)CCCCCN
melting point: 140 °C

FC(F)(Cl)C(F)(Cl)Cl
boiling point: 47.7 °C
log10 vapour pressure (mmHg): 2.56
melting point: -35 °C
ready biodegradability: not readily biodegradable
log10 BCF: 1.7

CCOC(=O)C1(C(=O)OCC)CC1
boiling point: 216 °C

O=C(O)CC1CCCCC1
boiling point: 245 °C
melting point: 33 °C

Clc1cc(Cl)c(-c2c(Cl)cc(Cl)c(Cl)c2Cl)cc1Cl
melting point: 83 °C
log10 biotransformation half-life (days): 2.59

O=C(O)CCCCCC1NC(=O)CS1 (stereo unspecified)
melting point: 140 °C

C[C@H]1C(=O)CC[C@@H]2[C@]1(C)CC[C@H]1[C@@]2(C)CC[C@@]2(C)[C@@H]3CC(C)(C)CC[C@]3(C)CC[C@]12C
melting point: 263 °C

CCS(=O)(=O)CC
boiling point: 248 °C
melting point: 73.5 °C

O=C1CCOc2ccccc21
melting point: 36.5 °C

C[C@@H]1CC[C@@]2(OC1)O[C@H]1C[C@H]3[C@@H]4CC[C@H]5C[C@@H](O)CC[C@]5(C)[C@H]4CC(=O)[C@]3(C)[C@H]1[C@@H]2C
melting point: 266 °C

COc1ccccc1
boiling point: 154 °C
log10 Koa: 4.01
log10 Koc (L/kg): 1.54
log10 vapour pressure (mmHg): 0.549
melting point: -37.5 °C
ready biodegradability: readily biodegradable

CCC1(C(C)C)C(=O)NC(=O)NC1=O
melting point: 203 °C

Oc1ccc(Br)cc1Cl
boiling point: 234 °C
melting point: 50.5 °C

CSc1c(N)nc(N)nc1Cl
log10 Koc (L/kg): 2.08

Cc1ccc2occc2c1
boiling point: 198 °C

O=C(Nc1ccc([N+](=O)[O-])cc1Cl)c1cc(Cl)ccc1O
log10 Koc (L/kg): 3.35
log10 vapour pressure (mmHg): -10.8
melting point: 230 °C
ready biodegradability: not readily biodegradable

O=[N+]([O-])c1ccc(CCl)cc1
melting point: 71 °C
ready biodegradability: not readily biodegradable

N#CC1(N=NC2(C#N)CCCCC2)CCCCC1
melting point: 116 °C

N=C(N)N(c1ccccc1)c1ccccc1
ready biodegradability: not readily biodegradable

C=C(C)[C@H]1CCC(C)=C[C@@H]1c1c(O)cc(CCCCC)cc1O
melting point: 67 °C

Clc1ccoc1
boiling point: 80 °C

C[Si](C)(C)[Si](C)(C)C
boiling point: 114 °C
melting point: 13.5 °C

Cn1c(=S)sc2ccccc21
boiling point: 335 °C
melting point: 90 °C

ClC(Cl)(Cl)c1ccccc1
boiling point: 221 °C
log10 vapour pressure (mmHg): -0.383
melting point: -5 °C
ready biodegradability: readily biodegradable

N#Cc1cccc(C#N)c1
melting point: 162 °C
ready biodegradability: not readily biodegradable
log10 BCF: 0.75
log10 biotransformation half-life (days): -0.62

C/C=C/C=C/CCCCCCCO
log10 vapour pressure (mmHg): -3.29
melting point: 32 °C

Cc1ccccc1C
boiling point: 144 °C
log10 Henry constant (atm·m³/mol): -2.29
log10 Koa: 3.91
log10 Koc (L/kg): 2.25
log10 biodegradation half-life (days): 0.778
log10 vapour pressure (mmHg): 0.82
melting point: -25.2 °C
ready biodegradability: readily biodegradable
log10 BCF: 1.15

O=Cc1cccc(Br)c1
boiling point: 234 °C

O=Cc1cccs1
boiling point: 197 °C

C[C@H](CN1CCOCC1)C(C(=O)N1CCCC1)(c1ccccc1)c1ccccc1
melting point: 182 °C

COc1ccccc1NC(C)=O
boiling point: 304 °C
melting point: 87.5 °C

CC(Cl)(Cl)C(=O)[O][Na]
log10 Koc (L/kg): 0
log10 BCF: 0.86

COc1ccc(C(=O)O)c(OC)c1OC
melting point: 100 °C

O=C(Nc1cccc(Cl)c1)OCC#CCCl
log10 Koc (L/kg): 3.06
log10 vapour pressure (mmHg): -6.42
melting point: 75 °C
ready biodegradability: not readily biodegradable

CCCCC(C=O)CC (stereo unspecified)
boiling point: 163 °C
log10 vapour pressure (mmHg): 0.255

c1ccc2c(c1)CCCC2
boiling point: 208 °C
log10 biodegradation half-life (days): 0.903
log10 vapour pressure (mmHg): -0.434
melting point: -35.7 °C
ready biodegradability: not readily biodegradable
log10 BCF: 2.53
log10 biotransformation half-life (days): 0.75

Cc1ccc(OCC(=O)O)cc1
melting point: 141 °C

CCCCCCCC(=O)OC
boiling point: 193 °C
log10 Henry constant (atm·m³/mol): -3.11
log10 vapour pressure (mmHg): -0.267
melting point: -40 °C
ready biodegradability: not readily biodegradable

CCOc1ccc2cc(O)c(O)cc2c1
melting point: 132 °C

CNc1ccccc1
boiling point: 196 °C
log10 Henry constant (atm·m³/mol): -5.05
log10 Koc (L/kg): 2.28
log10 vapour pressure (mmHg): -0.344
melting point: -57 °C
ready biodegradability: not readily biodegradable
log10 BCF: 1
log10 biotransformation half-life (days): -0.88

Nc1cccc(O)c1
melting point: 123 °C
ready biodegradability: not readily biodegradable
log10 BCF: 1.34

COc1cc(-c2ccc(N)c(OC)c2)ccc1N
boiling point: 356 °C
melting point: 137 °C
ready biodegradability: not readily biodegradable

Cc1ccc2oc(=O)ccc2c1
boiling point: 304 °C
melting point: 76.5 °C

Cc1ccc2oc(C)nc2c1
boiling point: 218 °C

CC[Si](O)(CC)CC
boiling point: 154 °C

ClC(c1ccccc1)(c1ccccc1)c1ccccc1
boiling point: 310 °C
melting point: 114 °C
ready biodegradability: not readily biodegradable
log10 BCF: 2.63
log10 biotransformation half-life (days): -0.15

CC(C)=CCC/C(C)=C/C=C/C(C)=C/C=C/C(C)=C/C=C/C=C(C)/C=C/C=C(C)/C=C/C1C(C)=CCCC1(C)C (stereo unspecified)
melting point: 140 °C

Cc1ccccc1NC(N)=S
melting point: 162 °C

CC(C)(C)c1cc([N+](=O)[O-])cc([N+](=O)[O-])c1O
melting point: 126 °C

O=Cc1ccnc2ccccc12
melting point: 51 °C

CC(C)C(C)C(C)C(C)C (stereo unspecified)
boiling point: 156 °C

CCC1(C)CCCC1
boiling point: 122 °C
melting point: -144 °C

Clc1ccc2c(Cl)ccnc2c1
melting point: 93 °C

C=COC(=O)CCl
ready biodegradability: readily biodegradable

CCCCC(CC)COP(=O)(OCC(CC)CCCC)OCC(CC)CCCC (stereo unspecified)
log10 vapour pressure (mmHg): -7.08
melting point: -74 °C
ready biodegradability: not readily biodegradable
log10 BCF: 1.7
log10 biotransformation half-life (days): -0.29

COc1cccc(OC)c1C(C)=O
melting point: 69 °C

CC(C)CCI
boiling point: 147 °C

CCC(C(=O)O)C1(O)CCCCC1 (stereo unspecified)
melting point: 81.5 °C

CCCCCCCCCCCCCCCCCCCCCC1CCCC1
boiling point: 420 °C
melting point: 42 °C

CCCCc1cc2ccccc2c2ccccc12
log10 biotransformation half-life (days): 0.29

CCCCCCCCI
boiling point: 226 °C
log10 vapour pressure (mmHg): -0.602
melting point: -45.7 °C

C=Cc1ccc(C)cc1C
melting point: -64 °C

Nc1ccc(Cl)c(C(=O)O)c1
melting point: 188 °C

O=S1(=O)CCCC1
boiling point: 285 °C
melting point: 27.6 °C
ready biodegradability: not readily biodegradable
log10 BCF: 0.85

COC(=O)Nc1cccc(OC(=O)Nc2cccc(C)c2)c1
log10 Koc (L/kg): 3.38
log10 vapour pressure (mmHg): -11
melting point: 143 °C

CC(Cl)C(C)(C)O (stereo unspecified)
boiling point: 142 °C

CCc1cc(C)cc(C)c1
boiling point: 184 °C
log10 biodegradation half-life (days): 0.301
log10 vapour pressure (mmHg): 0.0133
melting point: -84.3 °C

CCC(C)SC(C)CC (stereo unspecified)
boiling point: 165 °C

CCOC(=O)c1cccs1
boiling point: 218 °C

CCC1C(C)=NN=C(c2ccc(OC)c(OC)c2)c2cc(OC)c(OC)cc21 (stereo unspecified)
melting point: 156 °C

CCOc1nc(NC)nc(NC(=O)NS(=O)(=O)c2ccccc2C(=O)OC)n1
log10 Koc (L/kg): 1.93
melting point: 194 °C

Cc1ccc(S(=O)(=O)Nc2ccccc2C)cc1
melting point: 110 °C

Brc1ccc(Br)c2ccccc12
boiling point: 310 °C
melting point: 83 °C

Sc1ccc2ccccc2c1
boiling point: 288 °C
melting point: 81 °C
ready biodegradability: not readily biodegradable

O=C(OCC(F)(F)F)C(F)(F)F
boiling point: 55 °C

CC(C)Cc1ccccc1
log10 biodegradation half-life (days): 1

N#Cc1ccc(N)cc1Cl
melting point: 118 °C

CC(C)(C)O
boiling point: 82.4 °C
log10 Henry constant (atm·m³/mol): -5.04
log10 Koa: 3.5
log10 vapour pressure (mmHg): 1.61
melting point: 25.4 °C
ready biodegradability: not readily biodegradable
log10 BCF: 0.7
log10 biotransformation half-life (days): -1.13

CC(C)C1=CC[C@H](C)CC1
boiling point: 168 °C

CCC(=O)c1ccc(Cl)cc1
melting point: 37.3 °C

C=CCc1ccc2c(c1)OCO2
boiling point: 234 °C
log10 Koc (L/kg): 2.83
melting point: 11.2 °C

C[C@H]1[C@H](C)CC[C@]2(C(=O)O)CC[C@]3(C)C(=CC[C@@H]4[C@@]5(C)CC[C@H](O)C(C)(C)[C@@H]5CC[C@]43C)[C@H]12
melting point: 284 °C

O=C(O)CC(=O)O
ready biodegradability: readily biodegradable

COc1ccc(CCNCC(O)COc2cccc(C)c2)cc1OC (stereo unspecified)
melting point: 138 °C

C=C1COC2(OCCCO2)OC1
ready biodegradability: not readily biodegradable

CC/C=C\CCO
ready biodegradability: readily biodegradable

COCCCNc1nc(NC(C)C)nc(SC)n1
log10 vapour pressure (mmHg): -6.55

COC(=O)CCc1ccccc1
boiling point: 238 °C

CCC(=O)C(C)(C)C
boiling point: 126 °C
melting point: -45 °C

CC(=O)C=Cc1ccccc1
boiling point: 262 °C
log10 vapour pressure (mmHg): -1.91
melting point: 41.8 °C
ready biodegradability: not readily biodegradable
